Like-named read-outs stand apart in the source and are kept apart here.
Tests used:
[1] = target: T1, apical di-peptide transporter (Homo sapiens, UniProt P46059); assay: Transport of 14C-Gly-sar across Caco-2 monolayers, A-B and B-A; assay type: in vitro ADME; settings: pH 6 and 7.4
T1 construct: show functional expression of the dipeptide carrier and p-glycoprotein; endogenous in cells; host or cells: Caco-2 (ECACC 86010202)
T1 sequence (P46059 1-708): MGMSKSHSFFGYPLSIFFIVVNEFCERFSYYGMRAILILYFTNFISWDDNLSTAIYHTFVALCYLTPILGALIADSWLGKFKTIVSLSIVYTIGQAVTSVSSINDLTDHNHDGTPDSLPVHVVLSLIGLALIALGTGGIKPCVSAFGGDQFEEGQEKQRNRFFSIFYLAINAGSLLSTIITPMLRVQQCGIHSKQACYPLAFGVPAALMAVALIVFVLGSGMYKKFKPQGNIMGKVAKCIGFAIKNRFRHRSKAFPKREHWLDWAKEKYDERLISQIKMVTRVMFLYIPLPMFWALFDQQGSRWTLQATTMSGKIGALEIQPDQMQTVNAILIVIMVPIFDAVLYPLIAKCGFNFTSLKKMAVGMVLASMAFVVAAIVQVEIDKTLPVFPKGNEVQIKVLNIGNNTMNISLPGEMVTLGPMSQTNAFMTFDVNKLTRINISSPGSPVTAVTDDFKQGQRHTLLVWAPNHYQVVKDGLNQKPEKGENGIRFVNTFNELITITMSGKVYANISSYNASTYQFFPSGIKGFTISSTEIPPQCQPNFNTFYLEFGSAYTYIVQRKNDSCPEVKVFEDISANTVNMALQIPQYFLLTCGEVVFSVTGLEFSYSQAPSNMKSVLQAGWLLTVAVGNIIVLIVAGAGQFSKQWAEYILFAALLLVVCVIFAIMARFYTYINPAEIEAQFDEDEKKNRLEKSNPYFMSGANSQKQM
Protocol: Samples are analysed using appropriate methods.

in vitro = settings: human, Caco-2, pH 7.4
Protocol: (§1) This was carried out with the hydrophilic markers, ^14C-mannitol and Lucifer Yellow.
(§2) Solutions of drug for screening are prepared with Hank's Balanced Salts solution (HBSS) buffered to pH7.4 with HEPES. Up to 1% DMSO may be added to aid solubilisation. These drug solutions are added to either the apical (1.5 ml) or the basolateral (3.0 ml) chambers of a 6 well system, and HBSS at pH7.4 is added to the opposite chamber. 0.5 ml samples are taken at regular time intervals from the receiver chamber and the volume replaced with fresh pre-warmed HBSS at pH7.4. A donor sample is taken initially and at the final time point. Samples are analysed using appropriate methods. The volumes are modified accordingly for other plate formats (e.g. 400 μL apical volume, 1 mL basolateral volume for a 24 well plate).
(§3) The results are expressed as cumulative amount or percentage transported versus time. An absorption apparent permeability coefficient, Papp, can been calculated where: [formula]
(§4) where dQ/dt is the permeability rate (over the linear portion of the curve), C0 is the initial concentration in the donor chamber and A (cm^2) is the surface area of the filter insert supporting the cell monolayer.

Caco-2 cell monolayer = assay: in vitro
Protocol: as §1, §2, §3, §4

[2] = system: cell monolayers on BIOCOAT "3 day" system or polycarbonate filters; settings: cited from earlier work
P-glycoprotein = P-glycoprotein (Homo sapiens, UniProt P08183); settings: 6 well Biocoat inserts; without verapamil
Protocol: as §2

[3] = Polycarbonate (1), Artursson et al 1996, 14C-mannitol

P-glycoprotein, sequence (P08183 whole entry): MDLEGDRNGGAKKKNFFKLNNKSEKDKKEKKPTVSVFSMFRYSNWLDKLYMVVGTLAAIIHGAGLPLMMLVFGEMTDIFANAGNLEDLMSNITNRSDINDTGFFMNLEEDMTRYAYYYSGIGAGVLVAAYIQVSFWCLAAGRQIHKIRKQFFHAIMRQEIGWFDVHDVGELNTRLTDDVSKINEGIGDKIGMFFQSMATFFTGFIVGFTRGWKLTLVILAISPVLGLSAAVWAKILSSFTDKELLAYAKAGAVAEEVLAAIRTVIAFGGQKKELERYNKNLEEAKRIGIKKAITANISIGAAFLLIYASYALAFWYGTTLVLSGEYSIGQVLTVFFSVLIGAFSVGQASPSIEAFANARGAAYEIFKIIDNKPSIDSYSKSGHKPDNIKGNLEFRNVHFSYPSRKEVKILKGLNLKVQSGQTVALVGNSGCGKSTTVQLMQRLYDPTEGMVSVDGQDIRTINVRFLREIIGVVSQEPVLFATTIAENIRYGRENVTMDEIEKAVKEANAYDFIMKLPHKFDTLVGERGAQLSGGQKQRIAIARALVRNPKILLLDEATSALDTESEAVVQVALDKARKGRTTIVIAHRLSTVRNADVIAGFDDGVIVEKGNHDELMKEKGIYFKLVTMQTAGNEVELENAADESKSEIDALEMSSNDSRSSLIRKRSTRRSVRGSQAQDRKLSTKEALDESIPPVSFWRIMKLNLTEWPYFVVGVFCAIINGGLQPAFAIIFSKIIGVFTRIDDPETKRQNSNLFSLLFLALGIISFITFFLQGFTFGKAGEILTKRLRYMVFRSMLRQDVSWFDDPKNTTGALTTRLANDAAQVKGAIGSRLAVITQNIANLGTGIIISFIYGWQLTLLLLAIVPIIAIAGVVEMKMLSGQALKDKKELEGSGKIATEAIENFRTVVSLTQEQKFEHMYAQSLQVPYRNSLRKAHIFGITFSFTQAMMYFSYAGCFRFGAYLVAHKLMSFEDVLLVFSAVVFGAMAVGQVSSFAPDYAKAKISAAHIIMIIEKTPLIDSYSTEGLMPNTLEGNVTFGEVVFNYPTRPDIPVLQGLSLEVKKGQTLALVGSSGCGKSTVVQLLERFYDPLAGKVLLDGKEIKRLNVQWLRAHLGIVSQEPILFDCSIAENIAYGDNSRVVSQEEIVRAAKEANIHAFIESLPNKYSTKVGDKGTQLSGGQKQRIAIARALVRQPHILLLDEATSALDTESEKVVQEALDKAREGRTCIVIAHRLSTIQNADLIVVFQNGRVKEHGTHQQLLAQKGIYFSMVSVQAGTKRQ

CN(CC(=O)O)[14C](=O)CN [^14C-Gly-sar]
transport A-B versus B-A ([1]; 24 well PET inserts): increased transport in the A-B direction | transport A-B versus B-A ([1]; collagen coated 6 well Biocoat filters): increased transport in the A-B direction

OC[C@@H](O)[C@@H](O)[C@H](O)[C@H](O)CO [^14C-Mannitol, ^14C-mannitol]
Papp at 60 min (in vitro): ~0.4 ×10⁻⁶ cm/s | Papp (Caco-2 cell monolayer; Caco-2): 0.4 cm.s^−1 × 10^6 | % Transported/hour (Caco-2 cell monolayer; human, Caco-2, 1 h, pH 7.4): <0.5% | Average Mannitol Transported (Caco-2 cell monolayer; human, Caco-2, 60 min, pH 7.4): 0.36-0.40% | Papp ([2]; BIOCOAT "3 day" system, 14C-mannitol): <4.0 cm.s^−1 × 10^6 | % Transported/hour [2, 3]: 0.05% | Papp [2, 3]: 0.1-1.0 cm.s^−1 × 10^6 | % Transported/hour ([2]; Polycarbonate (3), Taub 1997, 14C-mannitol): 1.5%

Lucifer Yellow
% Transported/hour (Caco-2 cell monolayer; Caco-2): 0.13% | Average Lucifer Yellow Transported (Caco-2 cell monolayer; Caco-2): 0.13% | % Transported/hour ([2]; Polycarbonate (4), Hidalgo et al 1989, Lucifer Yellow): 0.11%

CC[C@]1(O)C[C@@H]2CN(CCc3c([nH]c4ccccc34)[C@@](C(=O)OC)(c3cc4c(cc3OC)N(C)[C@H]3[C@@](O)(C(=O)OC)[C@H](OC(C)=O)[C@]5(CC)C=CCN6CC[C@]43[C@@H]65)C2)C1 [^3H-vinblastine]
transport B to A versus A to B (P-glycoprotein): significantly greater B to A transport

OC[C@@H](O)[C@@H](O)[C@H](O)[C@H](O)CO [^3H-Mannitol]
Papp [2]: 0.76 cm.s^−1 × 10^6

Reference: US6511798B1, “Methods for the preparation of cell monolayers” (Zeneca Limited, priority 1998, dated 2003)
